Laboratory results published in US20120114576A1, “Method for preventing or treating yellowish discoloration of skin” (Shiseido Company, Ltd., priority 2010, published 2012).

Molecular target: T1, acellular dermis model (contracted collagen gel) (Bos taurus, UniProt P02453+P02465)
T1 construct: purchased Koken, Tokyo, Japan; host or cells: The gel was contracted by dermal fibroblasts, which were then destroyed by washing with de-ionized water
Assay: Experimental induction of yellowish change in acellular dermis model by carbonyl modification or glycation (colorimetry b*)
Design: species or system bovine
Details: 37° C.; for yellowish change of the dermal model (b*), long term treatment: 50 μM, 50 days, FIGS. 6 C and D; for yellowish change of the gel (b*): 9 days, FIGS. 6 A and B
Protocol: Skin color was measured by using a chromameter Konica-Minolta CM 2600d. The measurement of excised skin samples was performed by placing the skin samples on a white board. Data were expressed in the CIE L*a*b* color space, and the parameter b* was employed as a value for yellowish color.
A dermal equivalent model consisted of contracted collagen gel containing a trace amount of other extracellular matrix was prepared according to the method described by Tsunenaga et al. with a slight modification. Briefly, dermal fibroblasts (1×10^6 cells) were cultivated in 10 ml of Dulbecco's modified Eagle's medium supplemented with 10% fetal bovine serum and 0.3% acid-solubilized bovine type I collagen (Koken, Tokyo, Japan) in a petri dish of 60 mm diameter at 37° C. and 5% CO2. After 7 days of culture, a contracted collagen gel approximately 15 mm diameter was produced. Thereafter, this dermal equivalent model was extensively washed with serial changes of an excess amount of de-ionized water to destroy fibroblasts and to remove soluble materials.
The prepared acellular dermis model was incubated in 2.5 ml of an aqueous solution of chemical reagents, containing acrolein (50 μM to 10 mM) and 4-hydroxynonenal (4-HNE, 50 μM to 10 mM) for the carbonyl modification, and ribose (200 mM) and glyoxal (10 mM) for glycation. They were INCUBATED at 37° C. and the solutions were changed twice a week. Changes taking place in their color were monitored by colorimetry.
To confirm a link suspected between the carbonyl modification and the yellowish change of the dermis, the inventors examined the effect of experimentally produced carbonyl modification on the color of an acellular dermis model, and selected a contracted collagen gel as a dermis model, and treated it with acrolein or 4-HNE to induce carbonyl modification, or with d-ribose or glyoxal to induce glycation as a reference. […] Furthermore, a long term treatment of the dermis model with 50 μM acrolein or 50 μM 4-HNE, which were almost equivalent to those of the physiological concentrations in human tissue, also led to the yellowish colorization (FIGS. 6 C and D).

T1 sequence (P02453 162-1217 limits assumed): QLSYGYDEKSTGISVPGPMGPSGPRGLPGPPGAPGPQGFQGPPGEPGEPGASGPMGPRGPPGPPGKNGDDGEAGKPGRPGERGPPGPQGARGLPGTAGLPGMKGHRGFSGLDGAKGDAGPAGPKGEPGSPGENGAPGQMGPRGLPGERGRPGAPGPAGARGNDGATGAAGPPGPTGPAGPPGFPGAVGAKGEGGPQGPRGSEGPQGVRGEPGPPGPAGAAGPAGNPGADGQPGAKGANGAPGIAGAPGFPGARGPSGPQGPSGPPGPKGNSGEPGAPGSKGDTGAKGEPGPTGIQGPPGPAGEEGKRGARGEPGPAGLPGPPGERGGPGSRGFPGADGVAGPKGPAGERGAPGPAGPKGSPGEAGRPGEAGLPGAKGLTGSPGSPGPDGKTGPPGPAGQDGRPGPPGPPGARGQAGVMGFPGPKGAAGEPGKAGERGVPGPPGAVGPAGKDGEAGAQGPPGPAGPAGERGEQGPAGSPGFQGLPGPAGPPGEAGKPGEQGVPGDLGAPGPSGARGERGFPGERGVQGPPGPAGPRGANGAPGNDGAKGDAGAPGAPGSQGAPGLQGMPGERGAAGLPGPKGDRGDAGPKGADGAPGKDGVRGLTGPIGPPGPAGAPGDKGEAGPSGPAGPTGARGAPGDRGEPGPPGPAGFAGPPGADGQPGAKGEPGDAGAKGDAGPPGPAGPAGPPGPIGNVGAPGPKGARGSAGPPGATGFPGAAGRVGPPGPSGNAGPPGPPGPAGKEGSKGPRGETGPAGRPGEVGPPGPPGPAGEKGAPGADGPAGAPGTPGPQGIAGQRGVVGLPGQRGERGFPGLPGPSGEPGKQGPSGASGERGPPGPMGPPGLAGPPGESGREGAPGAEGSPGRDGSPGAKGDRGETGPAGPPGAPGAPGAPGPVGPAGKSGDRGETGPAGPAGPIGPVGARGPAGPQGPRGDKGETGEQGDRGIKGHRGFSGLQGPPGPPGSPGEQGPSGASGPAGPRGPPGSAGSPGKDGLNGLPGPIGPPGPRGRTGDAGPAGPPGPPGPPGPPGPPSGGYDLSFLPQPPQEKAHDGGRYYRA
T1 sequence (P02465 80-1117 limits assumed): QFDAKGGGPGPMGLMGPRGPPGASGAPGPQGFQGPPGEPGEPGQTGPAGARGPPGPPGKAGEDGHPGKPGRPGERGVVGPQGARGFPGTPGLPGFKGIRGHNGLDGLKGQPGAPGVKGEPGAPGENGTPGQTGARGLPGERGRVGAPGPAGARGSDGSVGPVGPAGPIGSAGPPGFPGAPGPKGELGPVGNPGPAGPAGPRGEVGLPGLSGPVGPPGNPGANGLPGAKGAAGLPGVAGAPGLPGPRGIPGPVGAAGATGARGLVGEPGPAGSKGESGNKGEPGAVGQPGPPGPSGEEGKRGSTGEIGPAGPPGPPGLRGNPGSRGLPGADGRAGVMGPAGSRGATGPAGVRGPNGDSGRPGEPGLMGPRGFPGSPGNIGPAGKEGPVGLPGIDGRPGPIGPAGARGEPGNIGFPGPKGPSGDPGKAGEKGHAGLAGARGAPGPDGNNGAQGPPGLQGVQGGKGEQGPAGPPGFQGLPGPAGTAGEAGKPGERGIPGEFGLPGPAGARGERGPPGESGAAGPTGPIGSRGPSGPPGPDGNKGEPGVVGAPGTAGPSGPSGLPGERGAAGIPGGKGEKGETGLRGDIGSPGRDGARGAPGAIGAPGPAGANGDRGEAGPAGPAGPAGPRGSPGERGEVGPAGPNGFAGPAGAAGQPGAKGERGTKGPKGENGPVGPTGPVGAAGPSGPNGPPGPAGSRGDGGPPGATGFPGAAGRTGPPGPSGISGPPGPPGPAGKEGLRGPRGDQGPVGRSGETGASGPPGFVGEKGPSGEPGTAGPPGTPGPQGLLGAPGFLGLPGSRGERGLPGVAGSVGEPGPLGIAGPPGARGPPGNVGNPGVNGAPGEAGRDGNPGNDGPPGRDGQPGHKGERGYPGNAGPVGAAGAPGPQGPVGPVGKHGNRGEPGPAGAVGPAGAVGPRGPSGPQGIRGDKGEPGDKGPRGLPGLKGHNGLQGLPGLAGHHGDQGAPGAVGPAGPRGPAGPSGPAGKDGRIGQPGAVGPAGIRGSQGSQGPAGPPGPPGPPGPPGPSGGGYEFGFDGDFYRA

Row | yellowish change of the gel (b*) (200 mM) | SMILES | yellowish change of the dermal model (b*), long term treatment | yellowish change of the gel (b*) (10 mM)
1 | – | C=CC=O [acrolein] | almost linear increase depending on the treatment period | significant yellowish change
2 | only a slight yellowish change | O=C[C@H](O)[C@H](O)[C@H](O)CO [d-ribose] | – | –
3 | – | CCCCCC(O)/C=C/C=O (stereo not drawn) [4-HNE, 4-hydroxynonenal] | reached the maximum in the first 10 days | significant yellowish change
4 | – | O=CC=O [glyoxal] | – | only a slight yellowish change
